Assay results taken from patent US20230270729A1, “USE OF N-[…] HAVING P2X4 RECEPTOR ANTAGONISTIC ACTIVITY FOR TREATING CERTIAN OCULAR DISORDERS” (Bayer Aktiengesellschaft, priority 2020, published 2023).

Legend:
Type in all cases: in vivo, rat
Sprague Dawley rats [1] = experiment: Lacrimal gland removal model with pain behavior read out (wipe test); details: rats after lacrimal gland removal; after two and four weeks of treatment, compared to vehicle (FIG. 1)
Experimental: Lacrimal Gland Removal Model with Pain Behavior Read Out
(§1) Sprague Dawley rats were anesthetized by intraperitoneal injection of 75 mg/kg ketamine +7.5 mg/kg xylazine hydrochloride. After removal of the facial hair, a 2 mm incision was carefully made between temporal lid margin and zygomatic arch. Bluntly separating the underlying tissue, exposing the fascia covering the intra-orbital lacrimal gland, avoiding the nerves and blood vessels. A small incision was made on the fascia, and the intra-orbital gland was gently pulled out and excised. The incision was sutured with a 8-0 polysorb suture and the skin was closed with a 5-0 polysorb suture (Ethilon; Ethicon Inc, Somerville, N.J.). A 3 mm incision was made just below the earlobe, and the extra-orbital lacrimal gland was pulled out and excised along its stem. This incision was closed in a manner similar as described above.
Acclimate rat in a quiet, clean, clear cage for 15 minutes. Gently hold head of rat, add one drop of 5M NaCl in the rat right eye, and start count wipes (front limb wipe across the face) for 30 seconds. Repeat wipe test in left eye. Wash each eye with 10 ml NS. […] The number of eye wipes over a period of thirty seconds was determined for each animal and averaged at various timepoints. […]

Sprague Dawley rats [2] = experiment: Lacrimal gland removal model, corneal nerve density measurement (IVCM); details: rats after lacrimal gland removal; treatment started two weeks post removal, compared to vehicle (FIG. 2)
Experimental: as §1
Nerve Density Measurement: […]

[3] = Evaluation of pharmacokinetics after topical eye drops; details: rats, topical eye drops 1 mg/mL in castor oil over four to seven days, expected trough, n = 2; for Mean concentration of test compound, Back of the eye / Mean concentration of test compound, Cornea / Mean concentration of test compound, Lacrimal gland and duct / Mean concentration of test compound, Lens and humor: wet tissue weight
Experimental: Evaluation of Pharmacokinetics
To evaluate the pharmacokinetics of test substances in vivo, these test substances are dissolved in appropriate formulation vehicles (e.g. castor oil). The test substances are then administered to rats topically as eye drops over four to seven days. Administered doses range usually between 0.1 to 5 mg/mL. Blood samples and ocular tissue samples are taken at the time of expected trough concentration, i.e. just before the next dosing would have occurred. Blood samples are retrieved via exsanguination in vials containing appropriate anticoagulants, such as lithium heparinate or potassium EDTA. Plasma is generated from the blood via centrifugation. Eyes are enucleated and briefly washed in PBS to remove possible remains of the topical formulation. Eyes are dissected and tissues of interest, e.g. cornea, lacrimal gland and duct, lens and humor and back of the eye tissue, are collected separately. Ocular tissues are pooled per individual animal, diluted in appropriate amounts of 0.9% NaCl in water and homogenized using a Tissuelyzer or equivalent system. The quantitative measurement of the test substances in the samples is performed using calibration curves in the respective matrices. The protein content of the samples is precipitated using acetonitrile or methanol. Thereafter, the samples are separated using HPLC in combination with reversed phase chromatography columns. The HPLC system is coupled to a triple quadrupole mass spectrometer via an electrospray interface. Particularly, HPLC was performed using a C18 column (e.g. Phenomenex Kinetex C18 5 mm 5 μm 2.1×50) and a mixture of 10 mM ammonium acetate pH6.8 and acetonitrile in a gradient with an increasing fraction of organic solvent. The retention time for the compound of example 2 was for example ca. 2.6 min.
Data: Mean concentration of test compound (μg/L of plasma or μg/kg of wet tissue weight), samples with concentrations below the lower limit of quantification (LOQ) are denoted as “<LOQ”, n corresponds to the number of the treated animals

Compound | Eye wipe count (5M NaCl, 30 seconds) (Sprague Dawley rats [1]) | Corneal nerve density (fold difference from baseline) (Sprague Dawley rats [2]) | Mean concentration of test compound, Plasma [3] | Mean concentration of test compound, Back of the eye [3] | Mean concentration of test compound, Cornea [3] | Mean concentration of test compound, Lacrimal gland and duct [3] | Mean concentration of test compound, Lens and humor [3]
CC(=O)N(c1ccc(F)cc1)c1cc(NC(=O)Cc2cccc(F)c2Cl)ccn1 [Example 2, N-{4-[2-(2-chloro-3-fluorophenyl)acetamido]pyridin-2-yl}-N-(4-fluorophenyl)acetamide] | no apparent further increase in wipe count | a decline in nerve density could be observed | 0.4 ng/mL | 13.8 µg/kg | 44.9 µg/kg | 17.4 µg/kg | 1.8 µg/kg
N#Cc1cnn(-c2ccc(NC(=O)Cc3ccccc3Cl)cc2S(N)(=O)=O)c1 [2-(2-Chlorophenyl)-N-[4-(4-cyano-1H-pyrazol-1-yl)-3-sulfamoylphenyl]acetamide, reference compound] |  |  | 2.37 ng/mL | 14.5 µg/kg | 13.4 µg/kg | 33.4 µg/kg | <4.0 µg/kg
